According to PubChem BioAssay (NCI):
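Cultured in 96-well plates, cells were exposed to test compound for 48 hours across five concentrations. TGI denotes the concentration required for complete inhibition of growth.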

Tests used:
Assay in all cases: NCI-60 cell line screen, 48 h
[1] = tested on: NCI-H226 lung
[2] = tested on: PC-3 prostate
[3] = tested on: CAKI-1 renal
[4] = tested on: HOP-62 NSCLC
[5] = tested on: OVCAR-3 ovarian
[6] = tested on: SK-MEL-2 melanoma
[7] = tested on: IGROV1 ovarian
[8] = tested on: OVCAR-8 ovarian
[9] = tested on: SK-MEL-28 melanoma
[10] = tested on: UACC-62 melanoma
[11] = tested on: BT-549 breast
[12] = tested on: EKVX NSCLC
[13] = tested on: NCI-H460 lung
[14] = tested on: HL-60(TB) leukemia
[15] = tested on: MCF7 breast
[16] = tested on: HT29 colon
[17] = tested on: MDA-N
[18] = tested on: MALME-3M melanoma
[19] = tested on: NCI-H23 lung

Compound | TGI [1] | TGI [2] | TGI [3] | TGI [4] | TGI [5] | TGI [6] | TGI [7] | TGI [8] | TGI [9] | TGI [10] | TGI [11] | TGI [12] | TGI [13] | TGI [14] | TGI [15] | TGI [16] | TGI [17] | TGI [18] | TGI [19]
COc1ccc(OC)c(C2CCc3c(cnc4nc(N)nc(N)c34)C2)c1 (stereo not drawn) | 54.8 µM | 27.5 µM | 29.1 µM | 26.8 µM | 31.3 µM | 31.8 µM | 17.5 µM | 21.6 µM | 29.4 µM | 12.3 µM | 40.7 µM | 24.2 µM | 21.6 µM | 25.9 µM | 24.3 µM | 16.2 µM | 17.2 µM | 20.9 µM | –
O=c1[nH]nc(Cc2ccccc2)n1CCCl | > 100 µM | > 100 µM | > 100 µM | > 100 µM | > 100 µM | > 100 µM | > 100 µM | > 100 µM | > 100 µM | > 100 µM | > 100 µM | > 100 µM | > 100 µM | > 100 µM | > 100 µM | > 100 µM | > 100 µM | > 100 µM | > 100 µM
O=C(CCCN1CCC2(CC1)CC(=O)N(N1CCOCC1)C2=O)c1ccc(F)cc1 | > 100 µM | > 100 µM | > 100 µM | > 100 µM | > 100 µM | > 100 µM | > 100 µM | > 100 µM | > 100 µM | > 100 µM | > 100 µM | – | > 100 µM | > 100 µM | > 100 µM | > 100 µM | > 100 µM | > 100 µM | > 100 µM
Cc1cc(C)c(O)c(CN2CCN(C(C)C)CCN(C(C)C)CC2)c1 | > 100 µM | > 100 µM | > 100 µM | – | > 100 µM | > 100 µM | 18.1 µM | 94.9 µM | 72.8 µM | > 100 µM | 54 µM | > 100 µM | > 100 µM | 71 µM | > 100 µM | – | 68.3 µM | 31.9 µM | –
CCOC(=O)C1(N)CCc2[nH][nH]c(=O)c2C1 (stereo not drawn) | > 100 µM | > 100 µM | > 100 µM | > 100 µM | > 100 µM | > 100 µM | > 100 µM | > 100 µM | > 100 µM | > 100 µM | > 100 µM | > 100 µM | > 100 µM | > 100 µM | > 100 µM | > 100 µM | > 100 µM | > 100 µM | > 100 µM
CCN(CC)C1CCC(C2c3cc4c(cc3OC(N3CCOCC3)C2C)OCO4)CC1 (stereo not drawn) | – | > 100 µM | > 100 µM | > 70.3 µM | 99.1 µM | 42.2 µM | > 100 µM | > 100 µM | > 100 µM | > 100 µM | 84.1 µM | > 100 µM | > 100 µM | 89.8 µM | > 84.1 µM | 25.7 µM | 38 µM | 90.7 µM | > 100 µM
